What was measured:
Candida albicans = assay: Antimicrobial action, microbe count (procedure as Example 1); assay type: cell-based; conditions: for Δlog: t24 h vs t0
Protocol: (§1) For sample preparation, the substance I-2 being investigated is homogeneously dispersed in an amount of 1.0% in a water/ethanol mixture (12% of ethanol) (=sample). A suspension of Staphylococcus epidermidis (ATCC 12228) having an optical density of 1.0 in CASO broth (Merck 1.05459) is diluted 1:10000 with CASO broth. 500 μl of sample are added to 500 μl of microorganism suspension, and the mixture is incubated at 35° C. for 24 h or 48 h. After the incubation, the test batches are diluted to −6 in 10 unit steps, and 0.1 ml of each is plated-out on CASO agar (Merck 1.05458) and incubated at 35° C. for 24 h.
(§2) In order to determine the initial microbe count, 0.1 ml of the bacteria suspension used are plated-out on CASO agar (Merck 1.05458) and incubated at 35° C. for 24 h.
(§3) The colonies are subsequently counted, and the microbe count per ml is determined compared with the negative control (12% of ethanol in water).
(§4) Procedure in Accordance with Example 1
(§5) The concentrations indicated are the final use concentrations. In order to prepare the stock solution, double the final concentration are prepared in the solvent indicated. This is subsequently diluted 1:2 with the corresponding microbe suspension. In the case of Aspergillus brasiliensis, the microbe count determination is exceptionally carried out after 48 h, in the case of Malassezia furfur after 72 h.

Echerichia coli = assay: as above; assay type: cell-based, Escherichia coli; conditions: for Δlog: t24 h vs t0
Protocol: as §1, §2, §3, §4, §5

[1] = system: Staphylococcus epidermidis (ATCC 12228); assay: Antimicrobial action, microbe count after incubation in CASO broth; assay type: cell-based; conditions: sample 1.0% in water/ethanol (12% of ethanol), 500 µl sample + 500 µl suspension; 35° C., 24 h or 48 h; initial count 5.8 × 10^4
Protocol: as §1, §2, §3

Corynebacterium xerosis = assay: Antimicrobial action, microbe count (procedure as Example 1); assay type: cell-based; conditions: 0.5% in H2O
Protocol: as §1, §2, §3, §4, §5

Propionibacterium acnes = assay: as above; assay type: cell-based; conditions: for Δlog: t24 h vs t0
Protocol: as §1, §2, §3, §4, §5

Salmonella enterica = assay: as above; assay type: cell-based; conditions: for Δlog: t24 h vs t0
Protocol: as §1, §2, §3, §4, §5

Serratia marcescens = assay: as above; assay type: cell-based; conditions: for Δlog: t24 h vs t0
Protocol: as §1, §2, §3, §4, §5

Staphylococcus aureus = assay: as above; assay type: cell-based; conditions: 1.0% in H2O(12% of ethanol)
Protocol: as §1, §2, §3, §4, §5

Aspergillus brasiliensis = assay: Antimicrobial action, microbe count (procedure as Example 1, count after 48 h); assay type: cell-based; conditions: for Δlog: count after 48 h vs t0; for Microbe count t24 h: count after 48 h
Protocol: as §1, §2, §3, §4, §5

Malassezia furfur = assay: Antimicrobial action, microbe count (procedure as Example 1, count after 72 h); assay type: cell-based; conditions: 1.0% in H2O
Protocol: as §1, §2, §3, §4, §5

[2] = Measurement of density and viscosities (Ubbelohde viscometer) to estimate spreadability; assay type: physicochemical
Protocol: After measurement of the densities and kinematic viscosities using an Ubbelohde viscometer, the following dynamic viscosities arise:
Kinematic viscosity of I-1: 15.2 mm^2/s Density of I-1: 0.9897 g/cm^3; 25° C.
Dynamic viscosity of I-1=kinematic viscosity of I-1×density I-1=15.0 [mPas]
Since spreadabilities and viscosities of cosmetic emollients correlate well, good spreadabilities can be concluded from the viscosities determined.

[3] = 0.25% in H2O, count t0 1.3 × 10^6
[4] = 0.25% in H2O, count t0 3.2 × 10^5

For `CC(O)COC1CCCCC1` (stereo not shown) [Substance I-9], the “Microbe count t24 h” value (Candida albicans; [3]) was 1.4 × 10^6, the Δlog (Candida albicans; 0.25% in H2O) was “+0.04” and the “Microbe count t24 h” value (Echerichia coli; [4]) was 4.30 × 10^8. For the same molecule, the Δlog (Echerichia coli; 0.25% in H2O) was “+3.13”.
For `COC1CCC(O)CC1` (stereo not shown) [Substance I-2], the Final microbe count [1] was 4.0 × 10^4 CFU/ml.
For `OCCOC1CCCCC1` [Substance I-1], the “Microbe count t24 h” value (Candida albicans; [3]) was 4.3 × 10^6, the Δlog (Candida albicans; 0.25% in H2O) was “+0.53” and the “Microbe count t24 h” value (Candida albicans; 1.0% in H2O(12% of ethanol), count t0 6.0 × 10^3) was 0. The Δlog (Candida albicans; 1.0% in H2O(12% of ethanol)) was −3.78, the “Microbe count t24 h” value (Corynebacterium xerosis; count t0 1.0 × 10^6) was 2.0 × 10^6 and the Δlog (Corynebacterium xerosis; t24 h vs t0) was “+0.30”. For the same molecule, the “Microbe count t24 h” value (Propionibacterium acnes; 1.0% in H2O, count t0 7.8 × 10^5) was 7.0 × 10^5, the Δlog (Propionibacterium acnes; 1.0% in H2O) was −0.05 and the “Microbe count t24 h” value (Salmonella enterica; 0.5% in H2O, count t0 1.0 × 10^6) was 9.0 × 10^3. For the same molecule, the Δlog (Salmonella enterica; 0.5% in H2O) was −2.05, the “Microbe count t24 h” value (Salmonella enterica; 0.8% in H2O(12% of ethanol), count t0 1.3 × 10^4) was 0 and the Δlog (Salmonella enterica; 0.8% in H2O(12% of ethanol)) was −4.11. For the same molecule, the “Microbe count t24 h” value (Serratia marcescens; 0.5% in H2O, count t0 2.9 × 10^5) was 1.7 × 10^4, the Δlog (Serratia marcescens; 0.5% in H2O) was −1.23 and the “Microbe count t24 h” value (Serratia marcescens; 1.0% in H2O, count t0 2.5 × 10^5) was 0. The Δlog (Serratia marcescens; 1.0% in H2O) was −5.40, the “Microbe count t24 h” value (Staphylococcus aureus; count t0 7.2 × 10^4) was 2.5 × 10^2 and the Δlog (Staphylococcus aureus; t24 h vs t0) was −2.46. The “Microbe count t24 h” value (Echerichia coli; [4]) was 8.0 × 10^8, the Δlog (Echerichia coli; 0.25% in H2O) was “+3.40” and the “Microbe count t24 h” value (Echerichia coli; 0.8% in H2O(12% of ethanol), count t0 6.3 × 10^4) was 0. For the same molecule, the Δlog (Echerichia coli; 0.8% in H2O(12% of ethanol)) was −4.80, the Δlog (Aspergillus brasiliensis; 1.0% in H2O(12% of ethanol)) was −0.90 and the “Microbe count t24 h” value (Aspergillus brasiliensis; 1.0% in H2O(12% of ethanol), count t0 8.0 × 10^2) was 1.0 × 10^2. The Δlog (Malassezia furfur; count after 72 h vs t0) was −2.60, the “Microbe count t24 h” value (Malassezia furfur; count t0 4.0 × 10^2, count after 72 h) was 0 and the Density ([2]; 25° C.) was 0.9897 g/mL. It also gave a Kinematic viscosity ([2]; Ubbelohde viscometer) of 15.2 mm^2/s and a Dynamic viscosity ([2]; kinematic viscosity × density) of 15.0 mPas.
With `OCCOC1CCC(OCCO)CC1` (stereo not shown) [Substance I-3, 2-[4-(2-hydroxyethoxy)cyclohexyloxy]ethanol] the “Microbe count t24 h” value (Propionibacterium acnes; 0.5% in H2O, count t0 3.4 × 10^5) was 4.0 × 10^7, the Δlog (Propionibacterium acnes; 0.5% in H2O) was “+2.07” and the “Microbe count t24 h” value (Aspergillus brasiliensis; 0.5% in H2O, count t0 2.8 × 10^4) was 1.6 × 10^4. The Δlog (Aspergillus brasiliensis; 0.5% in H2O, t0 2.8 × 10^4) was −0.24, the Δlog (Aspergillus brasiliensis; 1.0% in H2O) was −1.30 and the “Microbe count t24 h” value (Aspergillus brasiliensis; 1.0% in H2O, count t0 2.8 × 10^4) was 1.4 × 10^3.

From US20150118165A1, “USE OF CYCLOHEXANOL ETHERS HAVING ANTIMICROBIAL PROPERTIES” (Merck Patent GmbH, priority 2012, published 2015)
